This passage reports TGI results from PubChem BioAssay (NCI).

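Tested at 5 concentrations; 48 h exposure; 96-well plates; endpoints linearly interpolated, else capped at highest concentration. TGI marks complete inhibition of growth.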

Test systems include HS 578T breast; MDA-MB-435; BT-549 breast; SNB-19 CNS; IGROV1 ovarian; A549 NSCLC; LOX IMVI melanoma; HOP-62 NSCLC; M14 melanoma; MDA-MB-231 breast; MCF7 breast; HCT-15 colon; PC-3 prostate; SF-295 CNS; SNB-75 CNS; NCI-H226 lung; RPMI-8226 leukemia; CCRF-CEM leukemia; OVCAR-4 ovarian; MALME-3M melanoma.
What all share (experiment): NCI tumour cell line growth inhibition, 48 h

Regarding `O=C(CCc1cc(O)cc(O)c1)NCCc1cc(O)cc(O)c1`, the TGI in the assay on HS 578T breast, with MDA-MB-435, with BT-549 breast, with SNB-19 CNS, in the assay on IGROV1 ovarian and in the assay with A549 NSCLC was over 100 µM each time. Further, the TGI in the assay on LOX IMVI melanoma, in the assay with HOP-62 NSCLC, in the assay with M14 melanoma, in the assay on MDA-MB-231 breast, with MCF7 breast and with HCT-15 colon was over 100 µM each time. Also, the TGI with PC-3 prostate, in the assay with SF-295 CNS, with SNB-75 CNS, in the assay with NCI-H226 lung and in the assay on RPMI-8226 leukemia was over 100 µM in each case.

Take `C[C@@H]1C[C@](O)([C@@H](C)Cl)C(=O)O[C@@H]2CCN3CC=C(COC(=O)[C@]1(C)O)[C@H]23`: the TGI was over 100 µM with HS 578T breast; over 10 µM with CCRF-CEM leukemia; over 100 µM in the assay on MDA-MB-435; over 100 µM with BT-549 breast; over 10 µM with SNB-19 CNS; over 100 µM in the assay with IGROV1 ovarian. Besides, the TGI in the assay with A549 NSCLC, with LOX IMVI melanoma, in the assay with HOP-62 NSCLC, in the assay with OVCAR-4 ovarian, with M14 melanoma and in the assay on MDA-MB-231 breast was over 100 µM throughout. Further, the TGI in the assay with MCF7 breast, in the assay with HCT-15 colon, with PC-3 prostate, in the assay with SF-295 CNS, in the assay with SNB-75 CNS and with NCI-H226 lung was over 100 µM throughout. This molecule showed a TGI with RPMI-8226 leukemia of over 100 µM.

`COc1ccc(CCN=C2OCc3ccccc32)cc1OC`: the TGI in the assay with HS 578T breast, in the assay on MALME-3M melanoma, with CCRF-CEM leukemia, in the assay on MDA-MB-435, in the assay with BT-549 breast and in the assay on SNB-19 CNS was over 100 µM throughout. In addition, the TGI in the assay on IGROV1 ovarian was over 100 µM; in the assay with A549 NSCLC, over 100 µM; in the assay on LOX IMVI melanoma, over 100 µM; in the assay on OVCAR-4 ovarian, over 100 µM; in the assay on MDA-MB-231 breast, over 100 µM; in the assay with MCF7 breast, 90.4 µM. Further, the TGI with HCT-15 colon, in the assay with PC-3 prostate, in the assay on SF-295 CNS, with SNB-75 CNS and in the assay on NCI-H226 lung was over 100 µM in each case.

Regarding `N#CC1(C#N)C2CCCCC23OC(=N)C1(C#N)C(c1ccccc1)O3` (configuration not stated), the TGI in the assay on HS 578T breast was 4.76 µM; in the assay with MALME-3M melanoma, 34.5 µM; with CCRF-CEM leukemia, over 100 µM; in the assay with MDA-MB-435 it was 83.6 µM; with BT-549 breast it was 34.7 µM; in the assay on SNB-19 CNS, over 100 µM. Also, the TGI in the assay with IGROV1 ovarian was 37.2 µM; in the assay with A549 NSCLC, over 100 µM; in the assay on LOX IMVI melanoma, 45.1 µM; in the assay on M14 melanoma, 28.7 µM; in the assay on MDA-MB-231 breast, 33.8 µM; in the assay with MCF7 breast it was 49.9 µM. Further, the TGI is 28.6 µM in the assay with HCT-15 colon; 55.4 µM in the assay with PC-3 prostate; over 100 µM in the assay with SF-295 CNS; 11.7 µM with SNB-75 CNS; over 100 µM in the assay with NCI-H226 lung.

As to `O=C(NCCCN(CCCCN(CCCNC(=O)C(F)(F)F)CCCc1ccccc1)CCCc1ccccc1)C(F)(F)F`, the TGI was 4.2 µM with HS 578T breast; 3.34 µM in the assay with MALME-3M melanoma; 18.8 µM in the assay on CCRF-CEM leukemia; 3.35 µM in the assay with MDA-MB-435; 7.34 µM with BT-549 breast; 4.17 µM in the assay on SNB-19 CNS. The TGI with IGROV1 ovarian was 3.52 µM; in the assay with A549 NSCLC, 3.73 µM; in the assay on LOX IMVI melanoma, 3.89 µM; in the assay on OVCAR-4 ovarian, 17.6 µM; in the assay with M14 melanoma, 3.25 µM; in the assay with MDA-MB-231 breast, 3.11 µM. In addition, the TGI with MCF7 breast stood at 3.05 µM; in the assay with HCT-15 colon, 2.98 µM; with SF-295 CNS, 3.3 µM; in the assay on SNB-75 CNS, 2.56 µM; with NCI-H226 lung, 27 µM; with RPMI-8226 leukemia it was 7.97 µM.

`Cc1ccc(C(=O)N/N=C(\N=Nc2ccccc2[N+](=O)[O-])c2ccc(N(C)C)cc2)cc1`: the TGI in the assay on HS 578T breast, in the assay on CCRF-CEM leukemia, in the assay on MDA-MB-435, in the assay on BT-549 breast, in the assay with SNB-19 CNS and in the assay on IGROV1 ovarian was over 100 µM in each case. In addition, the TGI in the assay on A549 NSCLC, in the assay on LOX IMVI melanoma, with OVCAR-4 ovarian, in the assay on M14 melanoma, in the assay with MDA-MB-231 breast and with MCF7 breast was over 100 µM throughout. Moreover, the TGI in the assay on HCT-15 colon, with PC-3 prostate, in the assay with SF-295 CNS, in the assay on NCI-H226 lung and with RPMI-8226 leukemia was over 100 µM in each case.

`O=C(/C=C/C=C/c1ccccc1)c1ccc2c(c1)CCCC2`: the TGI with HS 578T breast was 30.4 µM; in the assay with CCRF-CEM leukemia it was over 100 µM; with MDA-MB-435, 40.8 µM; in the assay on BT-549 breast it was 77.4 µM; with SNB-19 CNS it was over 100 µM; in the assay with IGROV1 ovarian it was over 100 µM. For the same molecule, the TGI with A549 NSCLC, with LOX IMVI melanoma, in the assay on HOP-62 NSCLC, in the assay with OVCAR-4 ovarian, in the assay with M14 melanoma and in the assay on MDA-MB-231 breast was over 100 µM throughout. Moreover, the TGI with MCF7 breast is over 100 µM; in the assay on HCT-15 colon, over 100 µM; in the assay on PC-3 prostate, over 100 µM; with SF-295 CNS, over 100 µM; in the assay on NCI-H226 lung, 90.9 µM; in the assay with RPMI-8226 leukemia it was over 100 µM.

With `Cc1cn(CCCCCOC(=O)NC(CCCN=C(N)N)C(=O)O)c(=O)[nH]c1=O` (configuration not stated), the TGI with HS 578T breast was 71.9 µM; with CCRF-CEM leukemia it was over 100 µM; in the assay on MDA-MB-435 it was 47.5 µM; in the assay on BT-549 breast, over 100 µM; with SNB-19 CNS it was over 100 µM; with IGROV1 ovarian, over 100 µM. For the same molecule, the TGI with A549 NSCLC, with LOX IMVI melanoma, in the assay with HOP-62 NSCLC, with OVCAR-4 ovarian, in the assay with M14 melanoma and in the assay with MDA-MB-231 breast was over 100 µM throughout. Also, the TGI in the assay on MCF7 breast, in the assay with HCT-15 colon, with PC-3 prostate, in the assay on SF-295 CNS, in the assay with SNB-75 CNS and in the assay with NCI-H226 lung was over 100 µM in each case. In the assay with RPMI-8226 leukemia, the TGI came out at 57 µM.
